Laboratory results published in US9757350B2, “Small molecule inhibitors of replication protein A that also act synergistically with cisplatin” (Indiana University Research and Technology Corp., priority 2010, dated 2017).
Entries after “also recorded” stand apart in the source; their conditions may differ.

Key:
p21 = test: Quantitative real-time PCR of p21 mRNA; type: cell-based; details: A549, versus untreated control
Method: Real-Time PCR—A549 cells were plated in 10 cm dishes at 1.5×10^6, allowed to adhere, and treated for 24-48 hours with cisplatin or SMIs (5 μM). Referring now to FIG. 16B, Western blot of cells treated sequentially. For sequential treatment, A549 cells were exposed to cisplatin for 24 hours followed by the addition of SMIs for another 24 hours as above. Referring now to FIG. 16A, A549 cells were treated sequentially or concurrently with cisplatin (5 μM) and MCI13E or MCI13F for 24 total hours. Lysates were probed for p53-ser15-phosphorylation or phosphorylated-ATM. GAPDH was probed as a loading control. Concurrently treated cells were incubated simultaneously with both cisplatin and MCIs for 24 hours. RNA was extracted using RNeasy minikit (Qiagen, Germantown, Md.) per manufacturer's protocol. cDNA was generated using Applied Biosystem's (ABI) High Capacity RNA-to-cDNA kit. Validated gene primer/probe sets, also from ABI, were used for Quantitative Real Time-PCR. ABI's ΔΔCT Relative Quantification methodology was used for the analyses (applied Biosystems). Data were normalized to the housekeeping gene GAPDH and calibrated to the mock treated samples. Results presented are the average of two separate cell treatments/RNA isolations with duplicate Taqman Assays per RNA sample set.
Referring now to FIG. 15A. Plot of Quantitative Real Time PCR analyses of mRNA expression changes of A549 cells treated with MCI13E, MCI13F and Cisplatin. Data represents the average of four separate Q-RT PCR Assays. Genes of interest were normalized to GAPDH transcript levels, and are presented as fold changes relative to untreated cell samples. Cisplatin treatment increases transcription of DDB2 (A). Referring now to FIG. 15B. Bar graph of P21/GAPDH measured in cells subjected to different treatment schemes. Referring now to FIG. 15C. Bar graph of XPC/GAPDH measured under different treatment regimes XPC Concurrent MCI/Cisplatin treated cells show a decrease in gene transcription when compared to cells treated with Cisplatin alone (24 hour).

RPA DBD-A/B [1] = biological target: T1, RPA DBD-A/B (Homo sapiens, UniProt P27694); test: Reversibility of DBD-A/B inhibition: dialysis, then fluorescence polarization; type: binding; details: overnight dialysis, then FP with F-dT12
T1 construct: made in house; host or cells: E. coli BL21(DE3)
T1 sequence (P27694 181-422 limits assumed): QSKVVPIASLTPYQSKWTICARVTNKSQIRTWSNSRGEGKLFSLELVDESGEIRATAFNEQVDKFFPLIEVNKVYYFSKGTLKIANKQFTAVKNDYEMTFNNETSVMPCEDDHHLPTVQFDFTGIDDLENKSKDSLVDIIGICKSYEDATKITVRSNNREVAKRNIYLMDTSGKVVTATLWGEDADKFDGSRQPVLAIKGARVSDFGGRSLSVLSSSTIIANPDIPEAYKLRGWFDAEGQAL
Method: In an experiment reported herein, DBD-A/B was incubated with CheSS19 and then the reaction mix dialyzed overnight to remove dissociable inhibitor. […] Referring now to FIG. 3D. Bar graph showing results of fluorescence polarization analysis of CheSS19 inactivated RPA DBD-A/B. Referring now to FIG. 3D, RPA DBD-A/B was pre-incubated with vehicle (1% DMSO) or CheSS19 (1 pmol in 1% DMSO) for 30 minutes at 37° C. Following incubation, the reaction mix was dialyzed versus H1 buffer overnight at 4° C. The protein was recovered and DNA binding activity measured by FP analysis of binding to an F-dT12 substrate was performed as described in “Methods”. Bar 1, DNA control, Bar 2, control vehicle treated DBD-A/B, Bar 3, Chess19 treated DBD-A/B. The data represent the mean and range of two independent experiments.
Fluorescence polarization experiments were preformed as previously described (21). SMIs were diluted in H1 buffer (10 mM HEPES, pH 7.2, 1 mM DTT, 0.01% NP-40 and 100 mM NaCl) and the final DMSO concentration was kept below 1%.
In order to assess the reversibility of select SMIs, the indicated SMI was pre-incubated with RPA or the DBD-A/B construct for 30 minutes at room temperature. […] The resulting protein was recovered and concentration determined by Bradford analysis. […]

[2] = biological target: T2, full-length heterotrimeric RPA (Homo sapiens, UniProt P27694); details: reference 9; cited from earlier work
T2 construct: Human full-length, un-tagged heterotrimeric RPA (RPA) was purified as previously describe; made in house
T2 sequence (P27694 whole entry): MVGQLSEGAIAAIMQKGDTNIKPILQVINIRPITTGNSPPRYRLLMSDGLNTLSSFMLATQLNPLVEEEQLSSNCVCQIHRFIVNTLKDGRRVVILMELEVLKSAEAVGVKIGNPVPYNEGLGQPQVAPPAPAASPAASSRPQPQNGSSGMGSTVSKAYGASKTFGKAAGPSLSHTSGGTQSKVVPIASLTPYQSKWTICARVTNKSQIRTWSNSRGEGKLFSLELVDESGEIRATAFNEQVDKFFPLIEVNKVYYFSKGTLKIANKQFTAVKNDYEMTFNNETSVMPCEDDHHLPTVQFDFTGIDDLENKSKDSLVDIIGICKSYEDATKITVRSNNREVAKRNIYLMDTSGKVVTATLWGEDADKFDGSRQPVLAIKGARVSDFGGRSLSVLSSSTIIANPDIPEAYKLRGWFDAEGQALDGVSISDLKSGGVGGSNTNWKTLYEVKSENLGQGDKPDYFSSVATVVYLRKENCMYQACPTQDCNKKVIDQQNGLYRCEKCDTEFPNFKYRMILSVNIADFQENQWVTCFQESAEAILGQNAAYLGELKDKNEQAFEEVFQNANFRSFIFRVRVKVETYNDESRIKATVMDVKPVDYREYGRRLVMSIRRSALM
T2 sequence (P15927 whole entry partner): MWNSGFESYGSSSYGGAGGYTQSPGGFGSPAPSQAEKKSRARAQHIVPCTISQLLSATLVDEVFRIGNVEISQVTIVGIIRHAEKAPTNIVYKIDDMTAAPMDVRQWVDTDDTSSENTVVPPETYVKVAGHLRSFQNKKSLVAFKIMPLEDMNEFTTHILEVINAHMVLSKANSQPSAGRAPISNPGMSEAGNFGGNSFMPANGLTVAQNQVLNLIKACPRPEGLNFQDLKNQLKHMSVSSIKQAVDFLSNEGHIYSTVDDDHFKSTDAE
T2 sequence (P35244 whole entry partner): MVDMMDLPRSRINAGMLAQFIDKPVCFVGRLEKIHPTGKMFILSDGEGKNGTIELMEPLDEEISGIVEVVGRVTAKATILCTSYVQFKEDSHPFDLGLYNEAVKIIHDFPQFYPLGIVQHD

RPA DBD-A/B [3] = biological target: T1, RPA DBD-A/B; test: EMSA DNA binding assay, RPA DBD-A/B construct
Method: DBD-A/B. The sequence encoding the RPA p70 DNA binding domains A and B were subcloned from the hrRPA plasmid (provided by Dr. Marc Wold, University of Iowa) into the pET15b (Novagen) vector and the protein was expressed in BL21(DE3) cells (Stratagene) as previously described. Briefly, cells were grown to an OD600 of 0.8, induced with 0.5 mM isopropyl-1-thio-β-D-galactopyranoside (IPTG) at 37° C. for 2-3 hours. Small scale DBD-A/B preparations were obtained from 1 L cultures and following induction, cells were harvested by centrifugation at 700×g for 30 minutes at 4° C. The pellets were suspended in Buffer A (20 mM Tris, pH 7.5, 10% glycerol, 500 mM NaCl, 10 mM β-mercaptoethanol (BME) and 1 μg/mL phenylmethanesulfonylfluoride (PMSF), leupeptin and pepstatin) at 1 mL/gram of cells. The cells were lysed by sonication and insoluble material sedimented at 15,000×g for 30 minutes at 4° C. The supernatant was then loaded onto a 10 mL phosphocellulose column, equilibrated with Buffer A, and the flow-through material collected. Imidazole was added to 5 mM to the flow through which was then loaded onto a 2 mL nickel-NTA-agarose column. The column was then washed with Buffer A containing 50 mM imidazole after which protein was eluted from the column using a gradient from 50-500 mM imidazole. Fractions were analyzed for protein content using Bradford and SDS-PAGE analysis in addition to assessment of DNA binding activity as determined by anisotropy. Fractions containing the DBD-A/B protein were pooled and dialyzed overnight in Buffer B (1 mM HEPES, pH 7.2, 10 mM dithiothreitol (DTT), 50 mM NaCl and 1 μg/mL PMSF, pepstatin and leupeptin) and aliquots stored at −80° C.
RPA and DBD-A/B Binding. EMSAs were performed as previously described (22) using a 30-base purine rich ssDNA substrate (3Pc3). […] Gels were dried and quantified via phosphorimager analysis and ImageQuant software (Molecular Dynamics).

[4] = biological target: T2, full-length heterotrimeric RPA; test: EMSA in vitro DNA binding assay, full-length heterotrimeric RPA; details: ssDNA substrate
Method: RPA. Human full-length, un-tagged heterotrimeric RPA (RPA) was purified as previously describe.
RPA and DBD-A/B Binding. EMSAs were performed as previously described (22) using a 30-base purine rich ssDNA substrate (3Pc3). Briefly, reactions contained 12.5 nM 5′-[^32P]-labeled 3Pc3 ssDNA and the indicated concentrations of RPA or DBD-A/B. Protein was pre-incubated with the indicated concentration of SMI for 30 minutes at 37° C. DNA was then added and reactions incubated for an additional 5 minutes at room temperature in a final reaction volume of 40 μL. Reactions were then resolved on a 6% native polyacrylamide gel and electrophoresed at 170 volts for 1 hour. Gels were dried and quantified via phosphorimager analysis and ImageQuant software (Molecular Dynamics).

EcSSB = biological target: T3, EcSSB (Escherichia coli, UniProt P0AGE0); test: E. coli SSB DNA-binding EMSA; details: 0-200 μM, pre-incubated with protein
T3 construct: purchased Enzymatics, Beverly, Mass
T3 sequence (P0AGE0 2-178): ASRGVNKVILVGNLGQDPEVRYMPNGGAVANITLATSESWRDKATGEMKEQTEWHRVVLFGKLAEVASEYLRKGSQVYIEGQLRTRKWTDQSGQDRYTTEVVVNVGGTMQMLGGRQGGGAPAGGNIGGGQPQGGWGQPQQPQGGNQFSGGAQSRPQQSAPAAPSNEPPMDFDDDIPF
Method: In order to study the specificity of the CheSS19, and MCI13E/F compounds, their effects on two ssDNA binding proteins which use OB-folds for recognition and binding of ssDNA, E. coli SSB (6) and the Schizosaccharomyces pombe Pot1(DBD) domain (11) were studied. The EcSSB protein is a non-sequence-specific ssDNA binding protein, whereas the SpPot1(DBD) protein is a telomere-specific, ssDNA binding protein. In these experiments, protein was pre-incubated with the SMIs, as was done for the RPA experiments, prior to addition of radiolabeled ssDNA to the reactions.
Referring now to FIG. 6B. CheSS19 titration in EcSSB DNA-binding reactions. CheSS19 (0, 25, 50, 100, and 200 μM) was pre-incubated with EcSSB and binding reactions were carried out. Referring now to FIG. 6C. Titration of MCI13E and MCI13F in EcSSB DNA-binding reactions. Concentrations of MCI13E/F used were: 0, 25, 50, 100, and 200 μM. In all panels, the ‘Free’ ssDNA is indicated with an arrow and the ‘Bound’ ssDNA is indicated by brackets. All reactions were performed in the same order and manner as the RPA binding reactions. EcSSB binding was unaffected by CheSS19 and the MCI13E and MCI13F compounds […].
EMSAs were performed similarly to those for the RPA constructs, with the following exceptions. Reactions contained 25 nM of 5′-[^32P]-labeled 3Pc3 ssDNA and 3.3 nM (assuming homotetramer formation) SSB protein (Enzymatics, Beverly, Mass.). Reactions (20 μL) were carried out in 20 mM HEPES, pH 7.5, 1 mM DTT, 0.01% NP-40, 100 mM NaCl, and resolved by 6% native polyacrylamide gel electrophoresis at 25 mA for 2 hours. Gels were dried and quantified via phosphorimager analysis and ImageQuant software (Molecular Dynamics).

[5] = system: NSCLC cell lines A549 and H460; details: reference 1; cited from earlier work

N.N.[Cl][Pt][Cl] [cisplatin, cis-diamminedichloroplatinum (II)]
p21 mRNA expression, single agent (p21): dramatic increase in p21 mRNA expression

O=C1OC(=O)[C@H]2C3C=CC(CC3)[C@@H]12 [CheSS19]
Reversibility of DBD-A/B inhibition (RPA DBD-A/B [1]): inhibiting DBD-A/B in an irreversible manner | Reversibility of full-length RPA inhibition (earlier report) [2]: irreversible | Inhibition of DBD-A/B DNA binding (RPA DBD-A/B [3]): potent inhibitory activity; also recorded: inhibits the DNA binding activity of the DBD-A/B construct with similar potency to the heterotrimeric RPA preparation | Inhibition of full-length RPA DNA binding [4]: potent inhibitory activity | Effect on EcSSB ssDNA binding (EcSSB): unaffected

CCOc1ccc2cc(C3CC(c4ccc(Br)cc4)=NN3C(=O)CCC(=O)O)c(Cl)nc2c1 (stereo not shown) [TDRL-505]
Mode of cell death (earlier report) [5]: cytotoxic via a non-apoptotic pathway
